Measured values taken from patent publication US9365612B2, “Caspase inhibitors” (United States of America as represented by the Secretary, …, priority 2010, dated 2016).

How the values were obtained:
[1] = plasma protein binding, human; type: in vitro ADME; conditions: relative to VX-765 (1) and NCGC00185682 (3)
Description: (§1) Given the aqueous stability of these new agents, selected ADME properties for chosen compounds were also examined. VX-765 (1), VRT-043198 (2b), NCGC00185682 (3), NCGC00183434 (4) and NCGC00183681 (16) were evaluated for a profile of bi-directional Caco-2 permeability, plasma protein binding (both human and rat) and microsomal stability (both human and rat) studies (FIG. 9, Table 2). […] The clearance rates (Clint) and t ½ for VRT-043198 (2b), NCGC00185682 (3), NCGC00183434 (4) and NCGC00183681 (16) were all moderate.

[2] = aqueous degradation study by LCMS over 96 hours; type: physicochemical; conditions: for aqueous stability in acidic conditions (pH 2): pH 2, LCMS; for aqueous stability in acidic conditions (pH 2) / aqueous stability in neutral conditions (water, pH 7) / aqueous stability in basic conditions (pH 8): over 96 hours; for aqueous stability in neutral conditions (water, pH 7): pH 7, LCMS; for aqueous stability in basic conditions (pH 8): pH 8, LCMS
Description: In order to evaluate the agent's stability profile, VX-765 (1), VRT-043198 (2b), NCGC00185682 (3), NCGC00183434 (4) and NCGC00183681 (16) were examined within an aqueous degradation study at neutral (pH 7) acidic (pH 2) and basic (pH 8) conditions. The study was conducted by monitoring the degradation of each agent by LCMS analysis at various time points over 96 hours (FIG. 8). […] This degradation was amplified in both basic and acidic conditions. Conversely, the active agent VRT-043198 (2b) was very stable in both water and acidic conditions and its degradation at pH 8 was moderate.

caspase 14 = target: T1, caspase 14 (Homo sapiens, UniProt P31944); test: commercial panel of caspases (Reaction Biology Corporation), caspase 14; type: biochemical; conditions: read-out: IC50 versus caspase 14
T1 construct: purchased Reaction Biology Corporation
T1 sequence (P31944 6-146 limits assumed): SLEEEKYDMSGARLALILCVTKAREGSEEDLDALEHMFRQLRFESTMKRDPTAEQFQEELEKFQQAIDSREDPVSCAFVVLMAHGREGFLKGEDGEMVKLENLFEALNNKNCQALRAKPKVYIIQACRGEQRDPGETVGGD
T1 sequence (P31944 153-242 limits assumed): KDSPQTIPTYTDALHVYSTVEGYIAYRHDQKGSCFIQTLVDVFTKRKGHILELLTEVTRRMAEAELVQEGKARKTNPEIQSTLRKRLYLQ
Excerpt: (§2) Having established that the compounds (3), (4) and (16) are potent inhibitors of caspase 1, the selectivity of these agents was examined. […] Wannamaker, W.; Davies, R.; Namchuk, M.; Pollard, J.; Ford, P.; Ku, G.; Decker, C.; Charifson, P.; Weber, P.; Germann, U. A.; Kuida, K.; Randle, J. C. R. J. Pharmacol. Exp. Ther. 2007, 321, 509-516. […] VRT-043198 (2b), NCGC00185682 (3), NCGC00183434 (4) and NCGC00183681 (16) were entered within a commercial panel of caspases offered by Reaction Biology Corporation. […] A particularly interesting aspect of these molecules was the high selectivity for caspase 1. […] All other activities were about the 1 μM threshold.

caspase 1 [3] = target: T2, caspase 1 (Homo sapiens, UniProt P29466); test: commercial panel of caspases (Reaction Biology Corporation), caspase 1; type: biochemical; conditions: read-out: IC50 versus caspase 1
T2 sequence (P29466 120-297 limits assumed): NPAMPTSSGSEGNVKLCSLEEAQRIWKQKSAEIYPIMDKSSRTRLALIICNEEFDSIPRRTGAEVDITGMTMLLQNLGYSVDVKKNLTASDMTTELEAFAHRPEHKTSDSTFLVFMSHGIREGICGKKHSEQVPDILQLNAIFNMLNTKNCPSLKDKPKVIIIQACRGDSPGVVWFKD
T2 sequence (P29466 317-404 limits assumed): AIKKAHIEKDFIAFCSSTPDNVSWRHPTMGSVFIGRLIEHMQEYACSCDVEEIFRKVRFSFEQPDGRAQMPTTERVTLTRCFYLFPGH
Excerpt: as §2

caspase 1 [4] = target: T2, caspase 1; test: caspase 1 inhibition assay with caged fluorescent peptide substrate (Ac-LEHD-AMC); type: biochemical; conditions: 2 nM enzyme, 20 minutes at room temperature, fluorescence detection, read-out: IC50 versus caspase 1
Description: Each agent's inhibitory capacity versus caspase 1 was evaluated. A well established protocol was utilized whereby caspase 1 activity is measured utilizing 2 nM enzyme in the presence and absence of compound and a caged fluorescent peptide substrate (Ac-LEHD-AMC). Wannamaker et al, Journal of Pharmacology and Experimental Therapeutics, 2007, 321, 509-516. The compounds were examined across a titration series (0.325 nM→57.5 μM) and data was recorded via fluorescence detection following an incubation period of 20 minutes at room temperature.

[5] = microsomal stability (both human and rat); type: in vitro ADME; conditions: for clearance rates (Clint) / t ½: species not given
Description: as §1

[6] = plasma protein binding, rat; type: in vitro ADME; conditions: relative to VX-765 (1) and NCGC00185682 (3)
Description: as §1

caspase 9 = target: T3, caspase 9 (Homo sapiens, UniProt P55211); test: commercial panel of caspases (Reaction Biology Corporation), caspase 9; type: biochemical; conditions: read-out: IC50 versus caspase 9
T3 construct: purchased Reaction Biology Corporation
T3 sequence (P55211 1-315 limits assumed): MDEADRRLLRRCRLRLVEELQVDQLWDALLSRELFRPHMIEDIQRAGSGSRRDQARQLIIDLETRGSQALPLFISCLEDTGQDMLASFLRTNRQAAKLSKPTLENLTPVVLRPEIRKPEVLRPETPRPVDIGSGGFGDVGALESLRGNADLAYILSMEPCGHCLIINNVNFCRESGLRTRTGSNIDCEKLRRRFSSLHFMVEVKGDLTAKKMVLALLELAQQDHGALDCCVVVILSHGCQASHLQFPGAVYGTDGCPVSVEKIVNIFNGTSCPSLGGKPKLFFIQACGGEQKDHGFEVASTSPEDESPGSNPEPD
T3 sequence (P55211 331-416 limits assumed): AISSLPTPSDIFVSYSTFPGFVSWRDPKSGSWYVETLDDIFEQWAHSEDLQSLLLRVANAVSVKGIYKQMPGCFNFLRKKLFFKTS
Excerpt: as §2

Pgp = target: T4, Pgp (Homo sapiens, UniProt P08183); test: Caco-2 control experiment with verapamil (Pgp efflux); type: in vitro ADME
T4 construct: endogenous in cells; host or cells: Caco-2
Description: as §1

Caco-2 = test: bi-directional Caco-2 permeability; type: in vitro ADME
Description: as §1

T4 sequence (P08183 whole entry): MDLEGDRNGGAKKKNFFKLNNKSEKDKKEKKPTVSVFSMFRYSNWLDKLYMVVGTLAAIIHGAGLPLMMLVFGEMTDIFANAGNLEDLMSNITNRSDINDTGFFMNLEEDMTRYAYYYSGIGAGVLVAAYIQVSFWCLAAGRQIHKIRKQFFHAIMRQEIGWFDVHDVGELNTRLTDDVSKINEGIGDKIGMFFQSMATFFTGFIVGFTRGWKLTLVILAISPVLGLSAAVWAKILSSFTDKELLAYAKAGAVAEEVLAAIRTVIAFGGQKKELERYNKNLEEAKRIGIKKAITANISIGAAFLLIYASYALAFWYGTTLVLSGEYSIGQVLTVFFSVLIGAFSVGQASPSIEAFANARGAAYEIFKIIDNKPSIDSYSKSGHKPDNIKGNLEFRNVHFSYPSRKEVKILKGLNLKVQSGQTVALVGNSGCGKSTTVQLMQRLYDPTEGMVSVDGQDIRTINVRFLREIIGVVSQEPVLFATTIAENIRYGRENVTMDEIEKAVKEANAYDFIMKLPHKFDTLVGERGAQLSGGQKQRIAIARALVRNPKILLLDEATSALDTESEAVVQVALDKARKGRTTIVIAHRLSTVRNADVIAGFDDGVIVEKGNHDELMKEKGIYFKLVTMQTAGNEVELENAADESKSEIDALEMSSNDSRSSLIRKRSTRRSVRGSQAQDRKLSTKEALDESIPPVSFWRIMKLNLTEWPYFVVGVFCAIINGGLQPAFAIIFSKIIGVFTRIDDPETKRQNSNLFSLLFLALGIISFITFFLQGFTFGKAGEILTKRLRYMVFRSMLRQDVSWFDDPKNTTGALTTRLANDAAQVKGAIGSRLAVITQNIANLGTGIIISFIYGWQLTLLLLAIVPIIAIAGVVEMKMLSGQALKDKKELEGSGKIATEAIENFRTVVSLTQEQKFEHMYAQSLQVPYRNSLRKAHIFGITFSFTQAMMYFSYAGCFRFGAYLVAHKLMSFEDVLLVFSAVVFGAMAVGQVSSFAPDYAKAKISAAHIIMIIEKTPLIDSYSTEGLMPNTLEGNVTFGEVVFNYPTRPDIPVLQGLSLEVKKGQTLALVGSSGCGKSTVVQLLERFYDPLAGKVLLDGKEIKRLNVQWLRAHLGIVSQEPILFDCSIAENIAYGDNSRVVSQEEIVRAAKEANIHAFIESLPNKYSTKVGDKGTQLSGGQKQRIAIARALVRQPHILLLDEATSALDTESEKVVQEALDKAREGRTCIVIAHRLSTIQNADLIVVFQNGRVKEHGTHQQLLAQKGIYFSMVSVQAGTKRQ

SMILES | free fraction in protein binding assay [1] | aqueous stability in acidic conditions (pH 2) [2] | aqueous stability in neutral conditions (water, pH 7) [2] | aqueous stability in basic conditions (pH 8) [2] | IC50 (caspase 1 [3]) [nM] | IC50 (caspase 1 [4]) [nM] | clearance rates (Clint) ([5]; liver microsomes) | t ½ ([5]; liver microsomes) | free fraction in protein binding assay [6] | Pgp efflux substrate (Pgp) | Caco-2 A to B permeability (Caco-2) | Caco-2 B to A levels (Caco-2) | further results
CC(C)(C)C(NC(=O)c1ccc(N)c(Cl)c1)C(=O)N1CCCC1C(=O)NC(C#N)CC(=O)O (centres unmarked) [NCGC00183434 (4)] | significantly higher | moderate to good | moderate to good | exceedingly stable | 0.023 | 0.316 | moderate | moderate | significantly higher | – | – | – | degradation in acidic conditions ([2]; acidic (pH 2), after 72 hours): 50%; degradation in neutral conditions ([2]; neutral (pH 7), after 72 hours): 50%; persistence in aqueous conditions ([2]; suggested from the degradation data): > 24 h; IC50 (caspase 14): 801 nM
CC(C)(C)C(NC(=O)c1ccc(N)c(Cl)c1)C(=O)N1CCCC1C(=O)NC(C#N)Cc1nnn[nH]1 (centres unmarked) [NCGC00183681 (16)] | significantly higher | resistant to degradation | resistant to degradation | resistant to degradation | 2.58 | 20.4 | moderate | moderate | significantly higher | – | – | – | IC50 (caspase 9): 91.5 nM
CCOC(=O)CC(C#N)NC(=O)C1CCCN1C(=O)C(NC(=O)c1ccc(N)c(Cl)c1)C(C)(C)C (centres unmarked) [NCGC00185682 (3)] | – | exceptionally stable | exceptionally stable | – | 43.4 | 145 | moderate | moderate | – | substrates for Pgp efflux | moderately better levels | high | degradation in basic conditions ([2]; basic (pH 8), after 22 hours): fully degraded; degradation in liver microsomes without NADPH ([5]; without NADPH as a cofactor): slight degree of degradation
CCO[C@@H]1OC(=O)C[C@@H]1NC(=O)[C@@H]1CCCN1C(=O)[C@@H](NC(=O)c1ccc(N)c(Cl)c1)C(C)(C)C [VX-765 (1), reference compound] | – | amplified | moderate degradation | amplified | – | – | – | – | – | substrates for Pgp efflux | moderately better levels | high | degradation at pH 2 ([2]; pH 2, after 3.5 hours): 40%; compound decomposed in water ([2]; water (pH 7), after 48 hours): over 50%; metabolism by liver microsomes ([5]; liver microsomes): minimal ability to be metabolized; half-life ([5]; liver microsomes, read-out: t ½): > 157 h
